Assay results from US20260297060A1, “COMPOUNDS FOR THE DEGRADATION OF MUTANT BRAF” (C4 THERAPEUTICS, INC., priority 2023, published 2026).
Where two headings read alike, the source gives them in different places.

Assays:
[1] = biological target: T1, BRAF V600E (Homo sapiens, UniProt P15056+Q96SW2, V600E); experiment: BRAF V600E HiBiT Degradation Assay; format: cell-based
T1 construct: knock-in of the HiBiT tag to the endogenous BRAF V600E locus; host or cells: A375.10 (A375 clonal line, CRISPR HiBiT knock-in at the endogenous BRAF V600E locus)
Procedure, shortened: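 Endogenous HiBiT knock-in on BRAF V600E in A375 cells (clone A375.10); 11-point half-log series, top 10 μM, 2, 6 or 24 h at 37° C. Lytic HiBiT luminescence, background-subtracted, normalized to DMSO; 4-parameter fit gives DC50, Emax (residual protein) and IP (inflection point).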

[2] = tested on: A375-NRAS^Q61K cells; experiment: CTGlo Cell Viability Assay, A375-NRAS^Q61K (A375.11) cells, 96 hours; format: cell-based, human; details: A375.11 (A375-NRAS^Q61K) cells; for CTGlo A375.11 96 hours Emax / Emax: lowest % viability achieved
Procedure, shortened: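 Viability as CellTiter-Glo ATP luminescence after 96 h compound exposure at 37 °C; A375.11 (BRAF V600E/NRAS Q61K) cells at 250/well, top final concentration 10 μM in half-log steps. Signal was background-corrected and set relative to DMSO controls. A 4-parameter logistic fit gave GI50 (50% crossing) and Emax.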

[3] = A375.10 cells, BRAF V600E, 2 hours, inflection point, read-out: HiBiT-Degradation A375.10 BRAF 2 hours IP
[4] = A375.10 cells, BRAF V600E, 2 hours, read-out: HiBiT-Degradation A375.10 BRAF 2 hours DC50
[5] = A375.10 cells, BRAF V600E, 2 hours, residual protein remaining, read-out: HiBiT-Degradation A375.10 BRAF 2 hours Emax

T1 sequence (P15056 whole entry V600E): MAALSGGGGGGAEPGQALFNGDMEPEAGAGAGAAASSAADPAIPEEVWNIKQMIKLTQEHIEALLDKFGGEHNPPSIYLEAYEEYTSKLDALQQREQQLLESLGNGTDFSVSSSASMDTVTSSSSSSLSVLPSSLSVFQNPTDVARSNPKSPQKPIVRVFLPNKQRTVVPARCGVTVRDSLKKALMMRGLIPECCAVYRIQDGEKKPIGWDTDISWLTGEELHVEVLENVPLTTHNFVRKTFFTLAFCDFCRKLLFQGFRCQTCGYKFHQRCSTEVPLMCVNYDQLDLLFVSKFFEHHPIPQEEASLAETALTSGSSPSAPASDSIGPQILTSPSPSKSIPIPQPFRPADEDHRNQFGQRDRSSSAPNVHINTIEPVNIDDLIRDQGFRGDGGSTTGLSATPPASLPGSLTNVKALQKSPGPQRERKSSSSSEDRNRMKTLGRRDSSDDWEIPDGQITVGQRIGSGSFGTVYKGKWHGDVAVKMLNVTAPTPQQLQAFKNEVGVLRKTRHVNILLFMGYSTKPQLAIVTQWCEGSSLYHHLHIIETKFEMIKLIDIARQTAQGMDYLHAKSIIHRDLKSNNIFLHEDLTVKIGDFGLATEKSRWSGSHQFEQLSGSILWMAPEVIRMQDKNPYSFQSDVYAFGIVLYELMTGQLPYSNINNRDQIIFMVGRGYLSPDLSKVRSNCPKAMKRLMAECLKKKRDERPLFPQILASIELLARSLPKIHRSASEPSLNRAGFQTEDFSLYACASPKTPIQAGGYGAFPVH
T1 sequence (Q96SW2 whole entry): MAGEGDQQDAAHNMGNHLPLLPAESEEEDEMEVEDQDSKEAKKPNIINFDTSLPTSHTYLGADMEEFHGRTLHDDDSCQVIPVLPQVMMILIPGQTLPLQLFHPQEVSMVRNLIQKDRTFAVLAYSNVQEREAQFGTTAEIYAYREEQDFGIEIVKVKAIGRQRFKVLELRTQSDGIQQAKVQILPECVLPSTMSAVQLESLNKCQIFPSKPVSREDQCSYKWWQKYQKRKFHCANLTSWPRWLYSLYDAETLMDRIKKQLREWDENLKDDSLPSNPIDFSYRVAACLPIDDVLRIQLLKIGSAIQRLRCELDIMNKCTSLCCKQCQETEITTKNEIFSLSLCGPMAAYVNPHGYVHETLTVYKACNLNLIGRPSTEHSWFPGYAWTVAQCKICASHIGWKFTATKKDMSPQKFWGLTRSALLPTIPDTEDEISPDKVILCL
T1 sequence (Q16531 whole entry partner): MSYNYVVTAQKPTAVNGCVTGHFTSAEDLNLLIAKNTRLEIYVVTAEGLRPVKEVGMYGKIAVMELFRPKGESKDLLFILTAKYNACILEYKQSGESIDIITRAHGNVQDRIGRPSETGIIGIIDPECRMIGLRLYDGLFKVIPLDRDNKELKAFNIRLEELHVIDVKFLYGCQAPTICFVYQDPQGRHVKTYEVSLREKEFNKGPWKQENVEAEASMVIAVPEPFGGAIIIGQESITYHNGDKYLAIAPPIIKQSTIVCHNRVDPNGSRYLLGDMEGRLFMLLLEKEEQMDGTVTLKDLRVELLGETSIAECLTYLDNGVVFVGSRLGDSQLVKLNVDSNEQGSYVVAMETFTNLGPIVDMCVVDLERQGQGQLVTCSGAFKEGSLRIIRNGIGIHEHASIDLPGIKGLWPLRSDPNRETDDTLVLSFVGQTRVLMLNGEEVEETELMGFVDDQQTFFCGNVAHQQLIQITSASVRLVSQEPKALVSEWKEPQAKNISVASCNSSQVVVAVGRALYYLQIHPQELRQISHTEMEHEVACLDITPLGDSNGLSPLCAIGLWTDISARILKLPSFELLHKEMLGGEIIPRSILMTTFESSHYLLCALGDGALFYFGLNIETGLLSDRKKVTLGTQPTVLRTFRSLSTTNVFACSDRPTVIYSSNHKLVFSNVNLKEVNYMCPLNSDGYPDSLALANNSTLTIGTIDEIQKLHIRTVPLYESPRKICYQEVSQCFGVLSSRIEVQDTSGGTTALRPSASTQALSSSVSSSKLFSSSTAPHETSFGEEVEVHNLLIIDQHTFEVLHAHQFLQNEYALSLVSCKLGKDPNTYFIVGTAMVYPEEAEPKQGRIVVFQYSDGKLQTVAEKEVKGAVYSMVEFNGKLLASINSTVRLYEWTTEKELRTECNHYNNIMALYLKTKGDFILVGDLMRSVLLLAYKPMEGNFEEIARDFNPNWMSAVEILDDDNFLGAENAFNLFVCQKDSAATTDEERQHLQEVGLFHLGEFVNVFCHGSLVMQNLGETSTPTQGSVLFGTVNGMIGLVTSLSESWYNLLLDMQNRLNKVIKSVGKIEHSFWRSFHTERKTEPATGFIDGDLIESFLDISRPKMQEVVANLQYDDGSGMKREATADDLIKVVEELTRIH

Compound | HiBiT-Degradation A375.10 BRAF 2 hours Emax [1] | DC50 [1, 3] [nM] | DC50 [1, 4] [nM] | GI50 [2] [nM] | Emax [1, 5] [%] | GI50 ([2]; Homo sapiens, 96 h) [nM] | Emax ([1]; read-out: HiBiT-Degradation A375.10 BRAF 2 hours Emax, A375.10 cells, BRAF V600E, 2 hours, residual protein remaining) [%] | HiBiT-Degradation A375.10 BRAF 2 hours Emax ([1]; A375.10 cells, BRAF V600E, 2 hours, residual protein remaining) | CTGlo A375.11 96 hours Emax [2] | Emax ([2]; Homo sapiens, 96 h) [%]
CCN(C)S(=O)(=O)Nc1ccc(F)c(Oc2ccc3ncc(CC4CCN(C5CCC(c6ccc(NC7CCC(=O)NC7=O)cc6F)CC5)CC4)nc3c2)c1C#N (single isomer, unassigned) [Compound 147, 7-[2-cyano-3-[[ethyl(methyl)sulfamoyl]amino]-6-fluoro-phenoxy]-2-[[1-[4-[4-[(2,6-dioxo-3-piperidyl)amino]-2-fluoro-phenyl]cyclohexyl]-4-piperidyl]methyl]quinoxaline] |  | < 1000 | > 10000 |  | 50 to 90 | > 10000 |  |  |  | 50 to 90
CCN(C)S(=O)(=O)Nc1ccc(F)c(Oc2ccc3ncn([C@H]4COC5(CCC(N6C7COCC6CC(c6cc8c(cc6F)c(N6CCC(=O)NC6=O)nn8C)C7)CC5)C4)c(=O)c3c2)c1C#N (single isomer, unassigned) [Compound 155] |  | < 1000 | < 1000 |  | 50 to 90 | > 10000 |  |  |  | 50 to 90
CCN(C)S(=O)(=O)Nc1ccc(F)c(Oc2ccc3ncc([C@@H]4COC5(CCN(C6CCC(c7cc8c(cc7F)c(N7CCC(=O)NC7=O)nn8C)CC6F)CC5)C4)nc3c2)c1C#N (single isomer, unassigned) [Compound 163] |  | < 1000 | < 1000 |  |  | 1000 to 10000 | < 50 |  |  | 50 to 90
CCN(C)S(=O)(=O)Nc1ccc(F)c(Oc2ccc3ncn(C4CC5(CCN(C6CCC(c7ccc(NC8CCC(=O)NC8=O)cc7F)CC6)CC5)C4)c(=O)c3c2)c1F (single isomer, unassigned) [Compound 167, 3-[7-[4-[4-[(2,6-dioxo-3-piperidyl)amino]-2-fluoro-phenyl]cyclohexyl]-7-azaspiro[3.5]nonan-2-yl]-6-[3-[[ethyl(methyl)sulfamoyl]amino]-2,6-difluoro-phenoxy]-4-oxo-quinazoline] |  | < 1000 | > 10000 | 1000 to 10000 |  |  |  | ** (<90% and >50%) | ** (<90% and >50%) | 
CN(CCO)S(=O)(=O)Nc1ccc(F)c(Oc2ccc3ncc([C@H]4COC5(CCN(C6CCC(c7cc8c(cc7F)c(N7CCC(=O)NC7=O)nn8C)CC6F)CC5)C4)nc3c2)c1C#N (single isomer, unassigned) [Compound 170] |  | < 1000 | > 10000 |  | 50 to 90 | 1000 to 10000 |  |  |  | 50 to 90
CCN(C)S(=O)(=O)Nc1ccc(F)c(Oc2ccc3ncn(C4CC5(CCN(C6CCC(c7cc8c(cc7F)c(N7CCC(=O)NC7=O)nn8C)CC6)CC5)C4)c(=O)c3c2)c1F (single isomer, unassigned) [Compound 179, 3-[7-[4-[3-(2,4-dioxohexahydropyrimidin-1-yl)-5-fluoro-1-methyl-indazol-6-yl]cyclohexyl]-7-azaspiro[3.5]nonan-2-yl]-6-[3-[[ethyl(methyl)sulfamoyl]amino]-2,6-difluoro-phenoxy]-4-oxo-quinazoline] | ** (<90% and >50%) | < 1000 | < 1000 | 1000 to 10000 |  |  |  |  | ** (<90% and >50%) | 

Now from value to compound, other results behind:

HiBiT-Degradation A375.10 BRAF 2 hours Emax [1] | DC50 [1, 3] [nM] | DC50 [1, 4] [nM] | GI50 [2] [nM] | Emax [1, 5] [%] | GI50 ([2]; Homo sapiens, 96 h) [nM] | Emax ([1]; read-out: HiBiT-Degradation A375.10 BRAF 2 hours Emax, A375.10 cells, BRAF V600E, 2 hours, residual protein remaining) [%] | HiBiT-Degradation A375.10 BRAF 2 hours Emax ([1]; A375.10 cells, BRAF V600E, 2 hours, residual protein remaining) | Compound | CTGlo A375.11 96 hours Emax [2] | Emax ([2]; Homo sapiens, 96 h) [%]
** (<90% and >50%) | < 1000 | > 10000 | > 10000 |  |  |  |  | CN(CCO)S(=O)(=O)Nc1ccc(F)c(Oc2ccc3ncn(C4CC5(CCN(C6CCC(c7cc8c(cc7F)c(N7CCC(=O)NC7=O)nn8C)CC6F)CC5)C4)c(=O)c3c2)c1C#N (single isomer, unassigned) [Compound 146, 6-[2-cyano-6-fluoro-3-[[2-hydroxyethyl(methyl)sulfamoyl]amino]phenoxy]-3-[7-[4-[3-(2,4-dioxohexahydropyrimidin-1-yl)-5-fluoro-1-methyl-indazol-6-yl]-2-fluoro-cyclohexyl]-7-azaspiro[3.5]nonan-2-yl]-4-oxo-quinazoline] | ** (<90% and >50%) | 
 | < 1000 | < 1000 |  | < 50 | > 10000 |  |  | CCN(C)S(=O)(=O)Nc1ccc(F)c(Oc2ccc3ncc(CC4CCN(C5CCC(c6cc7c(cc6F)c(N6CCC(=O)NC6=O)nn7C)CC5)CC4)nc3c2)c1C#N (single isomer, unassigned) [Compound 149, 7-[2-cyano-3-[[ethyl(methyl)sulfamoyl]amino]-6-fluoro-phenoxy]-2-[[1-[4-[3-(2,4-dioxohexahydropyrimidin-1-yl)-5-fluoro-1-methyl-indazol-6-yl]cyclohexyl]-4-piperidyl]methyl]quinoxaline] |  | 50 to 90
 | < 1000 | 1000 to 10000 |  | 50 to 90 | > 10000 |  |  | CCN(C)S(=O)(=O)Nc1ccc(F)c(Oc2ccc3ncn(CCC4CCN(C5CCC(c6ccc(NC7CCC(=O)NC7=O)cc6F)CC5)CC4)c(=O)c3c2)c1C#N (single isomer, unassigned) [Compound 153, 6-[2-cyano-3-[[ethyl(methyl)sulfamoyl]amino]-6-fluoro-phenoxy]-3-[2-[1-[4-[4-[(2,6-dioxo-3-piperidyl)amino]-2-fluoro-phenyl]cyclohexyl]-4-piperidyl]ethyl]-4-oxo-quinazoline] |  | 50 to 90
 | < 1000 | > 10000 |  | 50 to 90 | 1000 to 10000 |  |  | CCN(C)S(=O)(=O)Nc1ccc(F)c(Oc2ccc3ncn(C4CC5(CCN(C6CCC(c7ccc(NC8CCC(=O)NC8=O)cc7F)CC6)CC5)C4)c(=O)c3c2)c1F (single isomer, unassigned) [Compound 166, 3-[7-[4-[4-[(2,6-dioxo-3-piperidyl)amino]-2-fluoro-phenyl]cyclohexyl]-7-azaspiro[3.5]nonan-2-yl]-6-[3-[[ethyl(methyl)sulfamoyl]amino]-2,6-difluoro-phenoxy]-4-oxo-quinazoline] | * (>=90%) | 
 | < 1000 | > 10000 |  | 50 to 90 | 1000 to 10000 |  |  | CN(CCO)S(=O)(=O)Nc1ccc(F)c(Oc2ccc3ncc([C@@H]4COC5(CCN(C6CCC(c7cc8c(cc7F)c(N7CCC(=O)NC7=O)nn8C)CC6F)CC5)C4)nc3c2)c1C#N (single isomer, unassigned) [Compound 172] |  | 50 to 90
 | < 1000 | < 1000 |  | < 50 | < 1000 |  |  | CN(CCO)S(=O)(=O)Nc1ccc(F)c(Oc2ccc3ncc([C@@H]4COC5(CCN(C6CCC(c7cc8c(cc7F)c(N7CCC(=O)NC7=O)nn8C)CC6)CC5)C4)nc3c2)c1C#N (single isomer, unassigned) [Compound 174] |  | 50 to 90
 | < 1000 | < 1000 |  | < 50 | < 1000 |  |  | CN(CCO)S(=O)(=O)Nc1ccc(F)c(Oc2ccc3ncc([C@H]4COC5(CCN(C6CCC(c7cc8c(cc7F)c(N7CCC(=O)NC7=O)nn8C)CC6)CC5)C4)nc3c2)c1C#N (single isomer, unassigned) [Compound 176] |  | 50 to 90
*** (<=50%) | < 1000 | < 1000 | < 1000 |  |  |  |  | CCN(C)S(=O)(=O)Nc1ccc(F)c(Oc2ccc3ncc(C4CC5(CCN(C6CCC(c7cc8c(cc7F)c(N7CCC(=O)NC7=O)nn8C)CC6)CC5)C4)nc3c2)c1C#N (single isomer, unassigned) [Compound 181, 7-[2-cyano-3-[[ethyl(methyl)sulfamoyl]amino]-6-fluoro-phenoxy]-2-[7-[4-[3-(2,4-dioxohexahydropyrimidin-1-yl)-5-fluoro-1-methyl-indazol-6-yl]cyclohexyl]-7-azaspiro[3.5]nonan-2-yl]quinoxaline] | *** (<=50%) | 
